{
  "source": "patent US4980474A",
  "about": "“Apovincaminic acid derivatives” (Taisho Pharmaceutical Co., Ltd., priority 1988, dated 1990)",
  "key": {"[1]": {"tested_on": "spontaneous spindle bursts (abnormal EEG pattern in aged rats)", "assay": "Improvement of abnormalities of electroencephalogram (EEG) in aged rats", "assay_type": "in vivo, male Wistar rats", "settings": "10 mg/kg intraperitoneally; for Time up to which the spontaneous spindle burst reappeared: aged rats 23-24 months; for increment of the time up to which the spontaneous spindle wave reappeared versus group treated with vitamin C only: number in parentheses", "procedure": "Six male Wistar rats (23-24 months old) were used for each group. The electrodes were implanted on the frontal and occipital cortexes and hippocamus, and the rats were housed for 14 days for applying to the test. The rats operated were each put into an acoustically shielded box with the minimum light amount and tamed for 60 minutes while keeping the behavior free, and then the recording of EEG was started. Thirty minutes after the starting the recording of EEG, the drug (used the same as those in Experiment 2) dissolved in 1 ml of an aqueous vitamin C solution was intraperitoneally administered in the amount of 10 mg per 1 kg of the body weight of the rat. The spontaneous spindle bursts (abnormal EEG pattern in aged rats) were disappeared after the intraperitoneal administration and reappeared after a certain time. [Neurobiology of Aging, vol. 7, page 115 (1986)]. The time up to which the spontaneous spindle burst reappeared was measured. Group which received 10% aqueous vitamin C solution only was tested for comparison. Number in parentheses means the increment of the time (minutes) up to which the spontaneous spindle wave reappeared after the drug administration when compared with that of the group treated with vitamin C only."}, "[2]": {"tested_on": "vertebral artery", "assay": "Effect on increase of blood flow, vertebral artery (anesthetized dogs)", "assay_type": "in vivo", "settings": "50 μg/kg intraarterially", "procedure": "(§1) Effect on increase of blood flow was examined using dogs anesthetized with 5% pentbarbital sodium (30 mg/kg). The drugs [2-nitroxyethyl (+)-apovincaminate and 3-nitroxyl-n-propyl apovincaminate of the present invention and ethyl (+)-apovincaminate as control] were administered intraarterially in an amount of each 50 μg/kg, comparisons were made of the blood flows in the femoral artery, vertebral artery and common coronary artery before and after administration of the drugs, and the increase ratios of the blood flows were expressed by percent in Table 1."}, "[3]": {"tested_on": "femoral artery", "assay": "Effect on increase of blood flow, femoral artery (anesthetized dogs)", "assay_type": "in vivo", "settings": "50 μg/kg intraarterially", "procedure": "as §1"}, "[4]": {"tested_on": "basilar and femoral artery rings, K^+ contraction", "assay": "Inhibition of basilar and femoral artery contraction induced by K^+", "set-up": "species or system Mongrel dogs", "settings": "Canis lupus familiaris; 64 mM K^+; Krebs-Ringer, isolated dog artery rings", "procedure": "(§2) The test was carried out according to the method of Sonia Jancar et al described in European Journal of Pharmacology, vol. 136, page 345 (1987). Mongrel dogs were killed by anesthetization with pentbarvital (60 mg/kg), the brain was rapidly removed, and the basilar artery was dissected. The femoral artery was picked up at the same time. The isolated blood vessel was cut into rings 5 mm wide, which were soaked in 5 ml of a Krebs-Ringer solution under a resting tension of 1 g. The solution was kept with 95% oxygen and 5% carbon dioxide. To each of the solution in which the blood vessel rings were soaked were added 64 mM of potassium ion (K^+), 10^-5 M of norepinefurin (NE) and 10^-6 M of serotonine (5HT), respectively, and the resulting blood contractions were measured by FD pick up. To the blood vessel rings each was administered the drug [2-nitroxyethyl (+)-apovincaminate of the present invention and ethyl (+)-apovincaminate as control], and the concentrations (IC50) required to produce 50% inhibitions of the contractions by the administration of K^+, NE and 5TH, respectively, were measured."}, "[5]": {"tested_on": "common coronary artery", "assay": "Effect on increase of blood flow, common coronary artery (anesthetized dogs)", "assay_type": "in vivo", "settings": "50 μg/kg intraarterially", "procedure": "as §1"}, "[6]": {"tested_on": "basilar and femoral artery rings, NE contraction", "assay": "Inhibition of basilar and femoral artery contraction induced by norepinephrine (NE)", "set-up": "species or system Mongrel dogs", "settings": "Canis lupus familiaris; 10^-5 M norepinephrine; Krebs-Ringer, isolated dog artery rings", "procedure": "as §2"}, "[7]": {"tested_on": "basilar and femoral artery rings, 5HT contraction", "assay": "Inhibition of basilar and femoral artery contraction induced by serotonin (5HT)", "set-up": "species or system Mongrel dogs", "settings": "Canis lupus familiaris; 10^-6 M serotonin; Krebs-Ringer, isolated dog artery rings", "procedure": "as §2"}},
  "data": [
    {"smiles": "CCOC(=O)C1=C[C@]2(CC)CCCN3CCc4c(n1c1ccccc41)[C@@H]32", "note": "[Drug B, Ethyl (+)-apovincaminate, reference compound]", "values": [
      {"measurement": "Time up to which the spontaneous spindle burst reappeared", "setting": "[1]", "result": 21, "unit": "min"},
      {"measurement": "increment of the time up to which the spontaneous spindle wave reappeared versus group treated with vitamin C only", "setting": "[1]; aged rats", "result": 11, "unit": "min"},
      {"measurement": "Increase of blood flow, Bertebral artery", "setting": "[2]", "result": 21.8, "unit": "%"},
      {"measurement": "Increase of blood flow, Femoral artery", "setting": "[3]", "result": 14.8, "unit": "%"},
      {"measurement": "IC50", "setting": "[4]", "result": 2.5, "unit": "µM"},
      {"measurement": "Increase of blood flow, Common coronary artery", "setting": "[5]", "result": 15.5, "unit": "%"},
      {"measurement": "IC50", "setting": "[6]", "result": 63.1, "unit": "µM"},
      {"measurement": "IC50", "setting": "[7]", "result": 100, "unit": "µM"}
    ]},
    {"smiles": "CC[C@@]12C=C(C(=O)OCCO[N+](=O)[O-])n3c4c(c5ccccc53)CCN(CCC1)[C@H]42", "note": "[Drug A, 2-nitroxyethyl (+)-apovincaminate]", "values": [
      {"measurement": "activity relative to drug B (control) in terms of the increment of the time up to which the spontaneous spindle burst reappeared", "setting": "[1]; aged rats", "result": "about 3 times"},
      {"measurement": "Time up to which the spontaneous spindle burst reappeared", "setting": "[1]", "result": 41, "unit": "min"},
      {"measurement": "increment of the time up to which the spontaneous spindle wave reappeared versus group treated with vitamin C only", "setting": "[1]; aged rats", "result": 31, "unit": "min"},
      {"measurement": "Increase of blood flow, Bertebral artery", "setting": "[2]", "result": 72.3, "unit": "%"},
      {"measurement": "Increase of blood flow, Femoral artery", "setting": "[3]", "result": 86.8, "unit": "%"},
      {"measurement": "IC50", "setting": "[4]", "result": 1.17, "unit": "µM"},
      {"measurement": "Increase of blood flow, Common coronary artery", "setting": "[5]", "result": 71.1, "unit": "%"},
      {"measurement": "IC50", "setting": "[6]", "result": 22.3, "unit": "µM"},
      {"measurement": "IC50", "setting": "[7]", "result": 6.02, "unit": "µM"}
    ]},
    {"smiles": "CC[C@@]12C=C(C(=O)OCCCO[N+](=O)[O-])n3c4c(c5ccccc53)CCN(CCC1)[C@H]42", "note": "[3-Nitroxy-n-propyl (+)-apovincaminate]", "values": [
      {"measurement": "Increase of blood flow, Bertebral artery", "setting": "[2]", "result": 45.7, "unit": "%"},
      {"measurement": "Increase of blood flow, Femoral artery", "setting": "[3]", "result": 28.2, "unit": "%"},
      {"measurement": "Increase of blood flow, Common coronary artery", "setting": "[5]", "result": 44.3, "unit": "%"}
    ]}
  ]
}
